Results reported in patent US6498247B2, “Alkali or alkaline earth metal of n-butyric acid for treatment of cognitive and emotional conditions” (Pro-Health, Inc., priority 2000, dated 2002).

Test: Case report: subject, under treatment for uneasiness, short temper and prolonged anger
Type: in vivo, human
Details: while taking welbutrin, before the butyrate
Excerpt: A subject was under treatment for uneasiness, short temper and prolonged anger, and was taking welbutrin.

CC(NC(C)(C)C)C(=O)c1cccc(Cl)c1 (stereo not shown) [welbutrin, 1-(3-chlorophenyl)-2-[(1,1-dimethylethyl)amino]-1-propanone]
side effects suffered under prior treatment: stomach discomfort, memory deficiency and reduced clarity of thought
